Experimental data as given in patent US20090196854A1, “METHODS AND COMPOSITIONS FOR USE OF CRL 5803 CELLS FOR EXPRESSION OF BIOTHERAPEUTICS AND ENCAPSULATED CELL-BASED DELIVERY” (priority 2008, published 2009).
Like-named read-outs stand apart in the source and are kept apart here. Values belong to the compound of their own block, whether it stands above or below them.

Legend:
CRL1440 polyclones = experiment: Zeocin dose-response of growth in BBP-transfected polyclones
Procedure: (§4) In an effort to address this issue we used plasmids we had constructed that used either of three viral promoter/enhancers: CMV, SV40, or RSV. These viral regulatory elements were used to direct the expression of the selectable marker for Zeocin, a bleomycin binding protein (BBP) that inactivates the drug by binding, rather than enzymatic degradation. The resistant colonies produced by these transfections were grown as polyclones for each different promoter.
Polyclones were expanded in 300 μg/ml Zeocin for SV40 and CMV promoter plasmids, and then plated to determine IC50s for growth at varied Zeocin doses.

CRL5803 = assay type: cell-based, human
Procedure: (§1) The cell lines were plated in 48 well plates at an appropriate dilution of cells for each cell line to provide for rapid entry into log phase of growth. The various concentrations of the selection drugs were added so that the drugs were present at the initiation of log phase growth and viable cells were determined after 7-10 days of culture. The screening used data for functional mass at the end of the study to express viable cells as a percentage of the vehicle, or no-treatment control wells. […] The % viable cell mass data was plotted, and fitted typically with a four-parameter equation. The fitted equation was used to calculate the IC50 dose. The drugs tested were G418 (inactivated by neomycin phophotransferase, NPT), hygromycin (inactivated by hygromycin phosphotansferse, HPT), blasticidin (inactivated by blasticidin deaminase, BSD), and zeocin (bound by bleomycin binding protein, BBP). These antibiotics were obtained from Invitrogen/Gibco (Invitrogen SA, Barcelona).
(§2) The drugs, G418, Zeocin, hygromycin, and blasticidin were obtained and used as described earlier. The most important aspect of these studies was to identify the concentration needed to kill all non-transfected cells.

CRL1440 = assay type: cell-based, human
Procedure: as §1, §2

ARPE-19 = assay type: cell-based, human
Procedure: as §1, §2

CCL205 = assay type: cell-based, human
Procedure: as §1, §2

CCL205 polyclone = conditions: CMV promoter polyclone
Procedure: as §4
The growth of CCL205 cells was slow enough that for IC50 calculations the final viable mass was used rather than growth.

ARPE-19 polyclone = experiment: Zeocin dose-response of growth in BBP-transfected polyclones; assay type: cell-based, human
[1] = system: human kidney cells 293 cells; experiment: 5FC sensitivity of cells expressing WT-CD transgene; assay type: cell-based; conditions: HEK293, 293 cells expressing WT-CD transgene
K3.31 = experiment: 5FC and 5FU dose-response in BDNF-expressing CRL 5803 line and CD transfectants; assay type: cell-based; conditions: Homo sapiens; K3.31 transfected with CD gene; read-out: 5FC IC50
Procedure: (§3) CRL 5803 cells expressing BDNF and CD: The CRL 5803 cell line was transfected with BDNF and clones expressing BDNF were selected. These selected clones were expanded to provide cells for transfections with cytosine deaminase plasmid (CX014). Four CD gene transfection studies were performed with three different BDNF-expressing cell lines. For each cell line at least 24 resistant clones were picked and screened for sensitivity to 100 μM 5FC. The clones with the lowest survival in 5FC (as percent of control wells) were then expanded for dose-response studies with 5FC and 5FU. Cytotoxicity of 5FC was used as an indication of CD gene expression, and this screen provided 6-9 clones per transfection. The IC50 for 5FU indicated the maximum potential cytotoxicity of the prodrug, 5FC, in cells expressing sufficient levels of CD gene and protein.

K3.4 = experiment: as above; assay type: cell-based; conditions: Homo sapiens, read-out: 5FC IC50
Procedure: as §3

K3.3 = experiment: as above; assay type: cell-based; conditions: Homo sapiens; K3.3 transfected with CD gene; read-out: 5FC IC50
Procedure: as §3

ARPE-19 cells = experiment: 5FC sensitivity of cells transfected with CD gene; assay type: cell-based, human; conditions: ARPE-19 transfected with CD gene
Text: ARPE-19 and CD Expression. […] The purpose of the screen was to eliminate 5FU-resistant cells with the expectation that it would be difficult to use CD as a kill system in such cells. We conclude that lack of cytotoxicity with CD transgene and 5FC treatment in these cells is, at least in part, due to the insensitivity of these cells to 5FU cytotoxicity. The 5-FC and CD cell suicide safety system may not readily be an effective safety system with ARPE-19 cells.

HT1080 cells (CD clone) = experiment: 5FC sensitivity of cells expressing WT CD gene; assay type: cell-based, human
Text: HT1080 cells and CD Expression, The HT1080 cell line was obtained from the ATCC and transfected with the WT CD gene of the present invention. A clone was isolated that had high expression of immunoreactive CD. […] This represents toxicity at about 100-fold lower concentrations of 5FC than achieved by others with HT1080 cells (Dachs, et al., Nature Medicine 3:515-20, 1997).

CRL5816 cells = experiment: 5FC sensitivity of cells expressing WT-CD transgene; assay type: cell-based; conditions: Homo sapiens
human colon tumor cells = experiment: as above; assay type: cell-based

Procedure for CRL 5803 polyclones: as §4

SMILES: Cc1c(N)nc([C@H](CC(N)=O)NC[C@H](N)C(N)=O)nc1C(=O)N[C@H](C(=O)N[C@H](C)[C@@H](O)[C@H](C)C(=O)N[C@H](C(=O)NCCC1=N[C@@H](c2nc(C(=O)NCCCCN=C(N)N)cs2)CS1)[C@@H](C)O)[C@@H](O[C@@H]1O[C@@H](CO)[C@@H](O)[C@H](O)[C@@H]1O[C@H]1O[C@H](CO)[C@@H](O)[C@H](OC(N)=O)[C@@H]1O)c1cnc[nH]1 [Zeocin]
IC50 for growth in Zeocin (CRL1440 polyclones; CMV plasmids): 2395 µg/mL | IC50 for growth in Zeocin (CRL1440 polyclones; SV40 promoter plasmid): 959 µg/mL | growth IC50 in Zeocin (CRL 5803 polyclones; CRL 5803, CMV promoter-BBP): 2700 µg/mL | growth IC50 in Zeocin (CRL 5803 polyclones; CRL 5803, RSV promoter-BBP): 2400 µg/mL | growth IC50 in Zeocin (CRL 5803 polyclones; CRL 5803, SV40 promoter plasmid): 2800 µg/mL | increase in the growth IC50 (CRL 5803 polyclones; CRL 5803, all promoters): ~5 fold | doses at which cytotoxicity was evident (CRL 5803 polyclones; CRL 5803 CMV promoter polyclone, dose range extended to 5000 μg/ml): > 3000 µg/mL | concentration found to kill non-transfected cells (CRL5803): 500 µg/mL | concentration found to kill non-transfected cells (CRL1440): 100 µg/mL | concentration found to kill non-transfected cells (ARPE-19): 50 µg/mL | concentration found to kill non-transfected cells (CCL205): <20 µg/mL | IC50 for Zeocin (final viable mass) (CCL205 polyclone): 27 µg/mL | shift in resistance compared to cells with no Zeocin-resistance gene (ARPE-19 polyclone; CMV promoter): ~8 fold | IC50 for growth in Zeocin (ARPE-19 polyclone; CMV promoter-BBP polyclone): 399 µg/mL

IC50 (K3.31): 21 ± 2 µM | IC50 (K3.4; independent second transfection with the CD gene): 67 ± 8 µM | IC50 (K3.4; one of the transfections with the CD gene): 79 ± 9 µM | IC50 (K3.3): 14 ± 2 µM | IC50 (HT1080 cells (CD clone); Homo sapiens, HT-1080, HT1080 clone with high expression of immunoreactive CD, dominantly growth arrest): 110 µM | IC50 (CRL5816 cells): 48 µM | IC50 (human colon tumor cells): 45 µM
SMILES: Nc1nc(=O)[nH]cc1F [5FC, 5-fluorocytosine]
IC50 [1]: 55 µM | sensitivity of CD-transfected clones to 5FC (ARPE-19 cells): unable to isolate clones that were sensitive to 5FC | fold lower toxic concentration of 5FC than achieved by others with HT1080 cells (HT1080 cells (CD clone); versus Dachs et al. 1997): about 100 fold
